Results reported in US11958834B2, “Inhibitors of human immunodeficiency virus replication” (VIIV HEALTHCARE UK (No. 5) LIMITED, priority 2018, dated 2024).

Legend:
Type in all cases: cell-based
[1] = tested on: recombinant NL4-3 virus (Renilla luciferase) in MT-2 cells; test: HIV cell culture assay (antiviral activity, luciferase readout)
Method: HIV cell culture assay—MT-2 cells, 293T cells and the proviral DNA clone of NL4-3 virus were obtained from the NIH AIDS Research and Reference Reagent Program. MT-2 cells were propagated in RPMI 1640 media supplemented with 10% heat inactivated fetal bovine serum (FBS), 100 μg/ml penicillin G and up to 100 units/mL streptomycin. The 293T cells were propagated in DMEM media supplemented with 10% heat inactivated FBS, 100 μg/mL penicillin G and 100 μg/mL streptomycin. A recombinant NL4-3 proviral clone, in which a section of the nef gene was replaced with the Renilla luciferase gene, was used to make the reference virus used in these studies. The recombinant virus was prepared through transfection of the recombinant NL4-3 proviral clone into 293T cells using Transit-293 Transfection Reagent from Mirus Bio LLC (Madison, Wis.). Supernatant was harvested after 2-3 days and the amount of virus present was titered in MT-2 cells using luciferase enzyme activity as a marker by measuring luciferase enzyme activity. Luciferase was quantitated using the EnduRen Live Cell Substrate from Promega (Madison, Wis.). Antiviral activities of compounds toward the recombinant virus were quantified by measuring luciferase activity in MT-2 cells infected for 4-5 days with the recombinant virus in the presence of serial dilutions of the compound.
The 50% effective concentration (EC50) was calculated by using the exponential form of the median effect equation where (Fa)=1/[1+(ED50/drug conc.)^m] (Johnson V A, Byington R T. Infectivity Assay. In Techniques in HIV Research. ed. Aldovini A, Walker B D. 71-76. New York: Stockton Press. 1990).

[2] = Compound cytotoxicity, XTT-based colorimetric assay; conditions: human; uninfected MT2 cells, day 4, XTT
Method: (§1) Compound cytotoxicity and the corresponding CC50 values were determined using the same protocol as described in the antiviral assay except that uninfected cells were used. Cytotoxicity was assessed on day 4 in uninfected MT2 cells by using a XTT (2,3-bis[2-Methoxy-4-nitro-5-sulfophenyl]-2H-tetrazolium-5-carboxyanilide inner salt)-based colorimetric assay (Sigma-Aldrich, St Louis, Mo.).

uninfected MT2 cells = test: as above; conditions: day 4, XTT
Method: as §1

[3] = MT-2 cells infected for 4-5 days with recombinant NL4-3 Renilla luciferase virus
[4] = Renilla, NL43, MT-2 cells infected for 4-5 days with recombinant NL4-3 Renilla luciferase virus

Structure (SMILES)	EC50 [1, 3] [nM]	CC50 at 4 days [2] [nM]	CC50 (uninfected MT2 cells) [nM]	EC50 [1, 4] [nM]
Cn1nc(NS(C)(=O)=O)c2c(Cl)ccc(-n3c([C@H](Cc4cc(F)cc(F)c4)NC(=O)Cn4nc(C(F)F)c5c4C(F)(F)[C@@H]4C[C@H]54)nccc3=O)c21 (mixture of isomers) [Example 1, N—((S)-1-(1-(4-chloro-1-methyl-3-(methylsulfonamido)-1H-indazol-7-yl)-6-oxo-1,6-dihydropyrimidin-2-yl)-2-(3,5-difluorophenyl)ethyl)-2-((3bS,4aR)-3-(difluoromethyl)-5,5-difluoro-3b,4,4a,5-tetrahydro-1H-cyclopropa[3,4]cyclopenta[1,2-c]pyrazol-1-yl)acetamide]	32.7	> 1000		
Cn1nc(NS(C)(=O)=O)c2c(Cl)ccc(-n3c([C@H](Cc4cc(F)cc(F)c4)NC(=O)Cn4nc(C(F)F)c5c4C(F)(F)[C@@H]4C[C@H]54)nccc3=O)c21 (mixture of isomers) [Example 2, N—((S)-1-(1-(4-chloro-1-methyl-3-(methylsulfonamido)-1H-indazol-7-yl)-6-oxo-1,6-dihydropyrimidin-2-yl)-2-(3,5-difluorophenyl)ethyl)-2-((3bS,4aR)-3-(difluoromethyl)-5,5-difluoro-3b,4,4a,5-tetrahydro-1H-cyclopropa[3,4]cyclopenta[1,2-c]pyrazol-1-yl)acetamide]	0.118		> 1000	
Cn1nc(NS(C)(=O)=O)c2c(Cl)ccc(-n3c([C@@H](Cc4cc(F)cc(F)c4)NC(=O)Cn4nc(C(F)F)c5c4C(F)(F)[C@@H]4C[C@H]54)nccc3=O)c21 [Example 3, N—((R)-1-((1M)-1-(4-chloro-1-methyl-3-(methylsulfonamido)-1H-indazol-7-yl)-6-oxo-1,6-dihydropyrimidin-2-yl)-2-(3,5-difluorophenyl)ethyl)-2-((3bS,4aR)-3-(difluoromethyl)-5,5-difluoro-3b,4,4a,5-tetrahydro-1H-cyclopropa[3,4]cyclopenta[1,2-c]pyrazol-1-yl)acetamide]		> 1000		12.7
Cn1nc(NS(C)(=O)=O)c2c(Cl)ccc(-n3c([C@H](Cc4cc(F)cc(F)c4)NC(=O)Cn4nc(C(F)F)c5c4C(F)(F)[C@@H]4C[C@H]54)nccc3=O)c21 [Example 4]			> 1000	0.554
Cn1nc(NS(C)(=O)=O)c2c(Cl)ccc(-n3c([C@@H](Cc4cc(F)cc(F)c4)NC(=O)Cn4nc(C(F)(F)F)c5c4C(F)(F)[C@@H]4C[C@H]54)nccc3=O)c21 [Example 5, N—((R)-1-((1M)-1-(4-chloro-1-methyl-3-(methylsulfonamido)-1H-indazol-7-yl)-6-oxo-1,6-dihydropyrimidin-2-yl)-2-(3,5-difluorophenyl)ethyl)-2-((3bS,4aR)-5,5-difluoro-3-(trifluoromethyl)-3b,4,4a,5-tetrahydro-1H-cyclopropa[3,4]cyclopenta[1,2-c]pyrazol-1-yl)acetamide]		> 1000		70
Cn1nc(NS(C)(=O)=O)c2c(Cl)ccc(-n3c([C@H](Cc4cc(F)cc(F)c4)NC(=O)Cn4nc(C(F)(F)F)c5c4C(F)(F)[C@@H]4C[C@H]54)nccc3=O)c21 [Example 6, N—((S)-1-((1P)-1-(4-chloro-1-methyl-3-(methylsulfonamido)-1H-indazol-7-yl)-6-oxo-1,6-dihydropyrimidin-2-yl)-2-(3,5-difluorophenyl)ethyl)-2-((3bS,4aR)-5,5-difluoro-3-(trifluoromethyl)-3b,4,4a,5-tetrahydro-1H-cyclopropa[3,4]cyclopenta[1,2-c]pyrazol-1-yl)acetamide]		> 1000		0.493
